In patent publication US12473301B2, “Isoquinoline compounds for the treatment of cancer” (Genentech, Inc., priority 2018, dated 2025):

molecular target: HPK1 (Homo sapiens (Human), UniProt Q92918, S171E/T165E); assay: HPK1-FL HTRF Enzymatic Assay ("HTRF"); format: biochemical; conditions: HPK full length, ATP 1 mM
Procedure: HPK1-FL HTRF Enzymatic Assay (“HTRF”)
HPK-FL enzyme phosphorylates Biotin-SLP-76 substrate in the presence of ATP at 1 mM and varying concentrations of test compound. Product is detected by FRET using Eu-anti-pSLP76 Ab and SA-XL665. Also see www.cisbio.com/HTRF for additional HTRF technology information.
Instrumentation: Echo555 compound dispenser; Agilent Bravo; Perkin Elmer Envision.
To a 384 well Proxiplate with 80 nL compound or DMSO spotted on was added 4 μl/well kinase mix. The mixture was preincubated for 30 minutes and then 4 μl/well substrate mix was added. The solution was incubated for 60 min and then 4 μl/well detection mix was added. The solution was incubated for another 60 min. The plates were then loaded onto a
Perkin Elmer Envision and the TR-FRET signal was measured at […] and 665 nm. A ratio of 665/620 was used to calculate the % activity at each concentration of compound.

Chain of HPK1 (Q92918 whole entry T165E/S171E): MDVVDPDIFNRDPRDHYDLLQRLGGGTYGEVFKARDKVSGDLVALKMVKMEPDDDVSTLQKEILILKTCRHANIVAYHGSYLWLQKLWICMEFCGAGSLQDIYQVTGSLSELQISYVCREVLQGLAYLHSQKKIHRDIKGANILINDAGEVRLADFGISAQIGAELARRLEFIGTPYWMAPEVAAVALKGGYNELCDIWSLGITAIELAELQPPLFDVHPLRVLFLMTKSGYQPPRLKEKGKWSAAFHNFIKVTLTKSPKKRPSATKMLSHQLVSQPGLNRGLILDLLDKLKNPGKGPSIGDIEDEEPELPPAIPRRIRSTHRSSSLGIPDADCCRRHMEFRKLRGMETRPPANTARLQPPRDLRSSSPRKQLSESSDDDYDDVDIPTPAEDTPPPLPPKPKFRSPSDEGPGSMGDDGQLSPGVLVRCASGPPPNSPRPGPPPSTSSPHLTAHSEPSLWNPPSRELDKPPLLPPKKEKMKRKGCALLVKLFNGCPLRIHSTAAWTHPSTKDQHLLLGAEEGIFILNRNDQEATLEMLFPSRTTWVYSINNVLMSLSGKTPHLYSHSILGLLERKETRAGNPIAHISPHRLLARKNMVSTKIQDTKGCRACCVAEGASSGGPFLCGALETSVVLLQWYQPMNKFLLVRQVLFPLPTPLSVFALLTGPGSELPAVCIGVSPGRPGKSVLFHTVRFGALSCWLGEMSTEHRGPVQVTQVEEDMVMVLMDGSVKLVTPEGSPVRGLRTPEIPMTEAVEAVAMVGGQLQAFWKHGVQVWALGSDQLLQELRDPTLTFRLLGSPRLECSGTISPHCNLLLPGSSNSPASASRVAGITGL

Structure (SMILES)	Ki [nM]
Cc1c(-c2cc3cc(NC(=O)OC4CC5(CCNCC5)C4)ncc3cc2F)cnc2c1NCCO2 [Compound 113, 7-Azaspiro[3.5]nonan-2-yl (7-fluoro-6-(8-methyl-2,3-dihydro-1H-pyrido[2,3-b][1,4]oxazin-7-yl)isoquinolin-3-yl)carbamate]	0.27
Cc1c(-c2cc3cc(NC(=O)OC4CC5(CNC5)C4)ncc3cc2F)cnc2c1NCCO2 [Compound 125, 2-Azaspiro[3.3]heptan-6-yl (7-fluoro-6-(8-methyl-2,3-dihydro-1H-pyrido[2,3-b][1,4]oxazin-7-yl)isoquinolin-3-yl)carbamate]	0.34
Cc1c(-c2cc3cc(NC(=O)OC4CS(=O)(=O)C4)ncc3cc2F)cnc2c1NCCO2 [Compound 130, 1,1-Dioxidothientan-3-yl (7-fluoro-6-(8-methyl-2,3-dihydro-1H-pyrido[2,3-b][1,4]oxazin-7-yl)isoquinolin-3-yl)carbamate]	4.1
Cc1c(-c2cc3cc(NC(=O)OC4CC5(C4)CN(C)C5)ncc3cc2F)cnc2c1NCCC2 [Compound 132, 2-Methyl-2-azaspiro[3.3]heptan-6-yl (7-fluoro-6-(4-methyl-5,6,7,8-tetrahydro-1,5-naphthyridin-3-yl)isoquinolin-3-yl)carbamate]	1.15
Cc1c(-c2cc3cc(NC(=O)OC4CC5(CCN(C)CC5)C4)ncc3cc2F)cnc2c1NCCC2 [Compound 133, 7-Methyl-7-azaspiro[3.5]nonan-2-yl (7-fluoro-6-(4-methyl-5,6,7,8-tetrahydro-1,5-naphthyridin-3-yl)isoquinolin-3-yl)carbamate]	1.07
Cc1c(-c2cc3cc(NC(=O)OC4CC5(CCNC5)C4)ncc3cc2F)cnc2c1NCCO2 (centres unmarked) [Compound 134, 6-Azaspiro[3.4]octan-2-yl (7-fluoro-6-(8-methyl-2,3-dihydro-1H-pyrido[2,3-b][1,4]oxazin-7-yl)isoquinolin-3-yl)carbamate]	0.47
Cc1c(-c2cc3cc(NC(=O)NCC4CC4)ncc3cc2F)cnc2c1NCCO2 [Compound 202, 1-(Cyclopropylmethyl)-3-(7-fluoro-6-(8-methyl-2,3-dihydro-1H-pyrido[2,3-b][1,4]oxazin-7-yl)isoquinolin-3-yl)urea]	0.5
Cc1c(-c2cc3cc(NC(=O)NC4CCOCC4)ncc3cc2F)cnc2c1NCCO2 [Compound 204, 1-(7-Fluoro-6-(8-methyl-2,3-dihydro-1H-pyrido[2,3-b][1,4]oxazin-7-yl)isoquinolin-3-yl)-3-(tetrahydro-2H-pyran-4-yl)urea]	0.83
Cc1c(-c2cc3cc(NC(=O)NC4CNC4)ncc3cc2F)cnc2c1NCCO2 [Compound 205, 1-(Azetidin-3-yl)-3-(7-fluoro-6-(8-methyl-2,3-dihydro-1H-pyrido[2,3-b][1,4]oxazin-7-yl)isoquinolin-3-yl)urea]	0.76
Cc1c(-c2cc3cc(NC(=O)NC4CC4)ncc3cc2F)cnc2c1NCCO2 [Compound 207, 1-Cyclopropyl-3-(7-fluoro-6-(8-methyl-2,3-dihydro-1H-pyrido[2,3-b][1,4]oxazin-7-yl)isoquinolin-3-yl)urea]	0.2
CC[C@@H]1[C@H](C(=O)Nc2cc3cc(-c4c[n+]([O-])ccc4C)c(F)cc3cn2)[C@H]1c1cnn(C)c1 [Compound 302a, 3-(3-((1S,2S,3S)-2-Ethyl-3-(1-methyl-1H-pyrazol-4-yl)cyclopropane-1-carboxamido)-7-fluoroisoquinolin-6-yl)-4-methylpyridine 1-oxide]	1280
CC[C@H]1[C@H](C(=O)Nc2cc3cc(-c4c[n+]([O-])ccc4C)c(F)cc3cn2)[C@H]1c1cnn(C)c1 [Compound 302b, 3-(3-((1S,2R,3S)-2-Ethyl-3-(1-methyl-1H-pyrazol-4-yl)cyclopropane-1-carboxamido)-7-fluoroisoquinolin-6-yl)-4-methylpyridine 1-oxide]	2000

Second part, the molecule after the results:

Ki [nM]	Structure (SMILES)
0.06	CC[C@@H]1[C@H](C(=O)Nc2cc3cc(-c4cnc5c(c4C)NCCO5)c(F)cc3cn2)[C@H]1c1cnn(C)c1 (single isomer, unassigned) [Compound 301c]
0.58	Cc1c(-c2cc3cc(NC(=O)O[C@H]4[C@@H]5CNC[C@@H]54)ncc3cc2F)cnc2c1NCCO2 [Compound 129a, (1R,5S,6s)-3-Azabicyclo[3.1.0]hexan-6-yl (7-fluoro-6-(8-methyl-2,3-dihydro-1H-pyrido[2,3-b][1,4]oxazin-7-yl)isoquinolin-3-yl)carbamate]

system: primary human pan T cells; assay: Human T-Cell IL2 Induction Assay; format: cell-based; conditions: assayed concentration 0.926 μM; anti-CD3/anti-CD28 stimulation
Procedure: Assay Principle: Anti-CD3 and anti-CD28 activates TCR signaling in primary human pan T cells leading to IL-2 promoter induction. Secreted IL-2 in cell culture supernatant is detected by electrochemiluminescence using a capture antibody against IL-2 and an anti-IL-2 antibody labeled with SULFO-tag. Also see www.mesoscale.com for additional electrochemiluminescence technology information.
Assay Procedure: Incubate primary human pan T cells with varying concentrations of test compounds for 30 minutes in a humidified incubator at 37° C. and 5% CO2. Transfer cells to a plate pre-coated with a fixed concentration of anti-human CD3 (determined separately for each donor lot) and add soluble anti-human CD28 (final concentration=1 μg/ml). Stimulate cells in a humidified incubator at 37° C. and 5% CO2 for 4 hours. Transfer 25 μl of supernatant to a MSD single spot plate pre-coated with an anti-human IL-2 antibody. Incubate MSD plate overnight at 4° C. with gentle shaking. Wash MSD plate 4× with wash buffer. Add SULFO-tagged detection antibody at a 1:50 dilution and incubate at room temperature shaking for 2 hours. Wash MSD plate 4× with wash buffer and add 150 μl 2×MSD read buffer. Read on an MSD instrument. Normalize data to stimulated/untreated controls to calculate % activity at each concentration of compound.
• Frozen Primary Human Pan-T Cells (StemCell Technologies #70024) • anti-human CD3 (OKT3 clone) (eBioscience #16-0037-81) • anti-human CD28 (CD28.2 clone) (BD #555725) • 96-well Human IL-2 tissue culture kit (MSD #K151AHB-4) Instrumentation: • Biomek FX for liquid handling (Beckman Coulter) • MSD SECTOR S 600 (Meso Scale Discovery)
Exemplary compounds of Formula (I) were tested in the human T-cell IL-2 induction assays. The % increase measured for IL-2 in cells treated by the test compounds relative to untreated cells are provided in Table B2 for certain compounds.

Structure (SMILES)	% IL-2 increase relative to untreated cells [%]
CC[C@@H]1[C@H](C(=O)Nc2cc3cc(-c4cnc5c(c4C)NCCO5)c(F)cc3cn2)[C@H]1c1cnn(C)c1 (single isomer, unassigned) [Compound 301c]	232

same assay, conditions: assayed concentration 2.778 μM; anti-CD3/anti-CD28 stimulation

Structure (SMILES)	% IL-2 increase relative to untreated cells [%]
Cc1c(-c2cc3cc(NC(=O)OC4CC5(CCNCC5)C4)ncc3cc2F)cnc2c1NCCO2 [Compound 113, 7-Azaspiro[3.5]nonan-2-yl (7-fluoro-6-(8-methyl-2,3-dihydro-1H-pyrido[2,3-b][1,4]oxazin-7-yl)isoquinolin-3-yl)carbamate]	702
Cc1c(-c2cc3cc(NC(=O)N[C@H](C)c4cnn(C)c4)ncc3cc2F)cnc2c1NCCO2 [Compound 201a, (R)-1-(7-Fluoro-6-(8-methyl-2,3-dihydro-1H-pyrido[2,3-b][1,4]oxazin-7-yl)isoquinolin-3-yl)-3-(1-(1-methyl-1H-pyrazol-4-yl)ethyl)urea]	145
